# According to patent US6949383B2 (priority 1998, dated 2005):
# What was measured:
# dnaQ49 strain [1] = test: Ampicillin concentration-survival (colony forming) after mutagenesis runs; assay type: cell-based, Escherichia coli; conditions: for AC: Ampicillin Concentration (maximum concentration for ampicillin resistance): dnaQ49 strain
# dnaQ = assay type: cell-based, Escherichia coli
# Wild-Type = assay type: cell-based, Escherichia coli
# Super-Amp-resistant dnaQ = assay type: cell-based, Escherichia coli
# wild type (dnaQ+ strain) = test: Ampicillin concentration-survival (colony forming) after mutagenesis runs, with or without MNNG; assay type: cell-based, Escherichia coli; conditions: for Maximum concentration for ampicillin resistance: wild type and MNNG wild type
# [2] = system: ampicillin-resistant Escherichia coli; conditions: resistance due to plasmid; cited from earlier work
# [3] = system: Super-Nali.-resisting dnaQ; test: Minimum growth inhibiting concentration (MIC) of antibiotic substances; assay type: cell-based, Escherichia coli
# dnaQ+ strain (wild type) = assay type: cell-based, Escherichia coli
# dnaQ49 strain [4] = test: Drug resistance reached by repeated mutagenesis and selection (Example 2); assay type: cell-based, Escherichia coli
# [5] = system: Super-Stre.-resisting dnaQ; test: Minimum growth inhibiting concentration (MIC) of antibiotic substances; assay type: cell-based, Escherichia coli
# [6] = mutagenesis treatment for 1 time
# [7] = mutagenesis treatments for 2 times
# [8] = mutagenesis treatments for 3 times
# [9] = mutagenesis treatments for 4 times
# [10] = mutagenesis treatments for 5 times
# [11] = mutagenesis treatments for 6 times
# [12] = mutagenesis treatments for 7 times
# [13] = mutagenesis treatments for 8 times
# [14] = mutagenesis treatments for 9 times
# [15] = mutagenesis treatments for 10 times
# [16] = mutagenesis treatments for 11 times
# [17] = mutagenesis treatments for 12 times
# [18] = mutagenesis treatments for 13 times
# [19] = mutagenesis treatments for 14 times
# [20] = mutagenesis treatments for 15 times
# [21] = mutagenesis treatments for 16 times
# [22] = mutagenesis treatments for 17 times
# [23] = mutagenesis treatments for 18 times
# [24] = mutagenesis treatments for 19 times
# [25] = mutagenesis treatments for 20 times
# [26] = mutagenesis treatments for 21 times
# [27] = mutagenesis treatments for 22 times
# [28] = mutagenesis treatments for 23 times
compound,measurement,setting,value
CC1(C)S[C@@H]2[C@H](NC(=O)[C@H](N)c3ccccc3)C(=O)N2[C@H]1C(=O)O [Ampicillin],Ampicillin resistance of strain obtained,"dnaQ49 strain [1]; another dnaQ49 strain, five mutagenesis treatments (FIG. 7)","about 10,000 g/ml"
same,Ampicillin resistance from concentration-survival curve,"dnaQ49 strain [1]; dnaQ49 strain before introduction of mutation, compared with wild type, 24° C., two days",slightly stronger ampicillin resistance than the wild type
same,AC: Ampicillin Concentration (maximum concentration for ampicillin resistance),dnaQ49 strain [1]; 1st Run of mutagenesis,30 µg/mL
same,AC: Ampicillin Concentration (maximum concentration for ampicillin resistance),dnaQ49 strain [1]; 2nd Run of mutagenesis,300 µg/mL
same,AC: Ampicillin Concentration (maximum concentration for ampicillin resistance),dnaQ49 strain [1]; 3rd Run of mutagenesis,1000 µg/mL
same,AC: Ampicillin Concentration (maximum concentration for ampicillin resistance),dnaQ49 strain [1]; 4th Run of mutagenesis,3000 µg/mL
same,AC: Ampicillin Concentration (maximum concentration for ampicillin resistance),dnaQ49 strain [1]; 5th Run of mutagenesis,6000 µg/mL
same,AC: Ampicillin Concentration (maximum concentration for ampicillin resistance),"dnaQ49 strain [1]; 5th Run of mutagenesis, listed as ampicillin","about 6,000 μg/ml"
same,Minimum growth inhibiting concentration (MIC),dnaQ,2
same,Minimum growth inhibiting concentration (MIC),Wild-Type,1
same,Minimum growth inhibiting concentration (MIC),Super-Amp-resistant dnaQ,2048
same,Ampicillin resistance of resistant microorganism obtained,"wild type (dnaQ+ strain); MNNG-treated group, low-concentration treatment",300 µg/mL
same,AC: Ampicillin Concentration (maximum concentration for ampicillin resistance),"wild type (dnaQ+ strain); Wild type (MNNG Concn 0), 1st Run",3 µg/mL
same,AC: Ampicillin Concentration (maximum concentration for ampicillin resistance),"wild type (dnaQ+ strain); Wild type (MNNG Concn 0), 2nd Run",10 µg/mL
same,AC: Ampicillin Concentration (maximum concentration for ampicillin resistance),"wild type (dnaQ+ strain); Wild type (MNNG Concn 0), 3rd Run",10 µg/mL
same,AC: Ampicillin Concentration (maximum concentration for ampicillin resistance),"wild type (dnaQ+ strain); Wild type (MNNG Concn 0), 4th Run",10 µg/mL
same,AC: Ampicillin Concentration (maximum concentration for ampicillin resistance),"wild type (dnaQ+ strain); Wild type (MNNG Concn 0), 5th Run",60 µg/mL
same,AC: Ampicillin Concentration (maximum concentration for ampicillin resistance),"wild type (dnaQ+ strain); Wild type (MNNG Concn 1), 1st Run",3 µg/mL
same,AC: Ampicillin Concentration (maximum concentration for ampicillin resistance),"wild type (dnaQ+ strain); Wild type (MNNG Concn 1), 2nd Run",10 µg/mL
same,AC: Ampicillin Concentration (maximum concentration for ampicillin resistance),"wild type (dnaQ+ strain); Wild type (MNNG Concn 1), 3rd Run",10 µg/mL
same,AC: Ampicillin Concentration (maximum concentration for ampicillin resistance),"wild type (dnaQ+ strain); Wild type (MNNG Concn 1), 4th Run",10 µg/mL
same,AC: Ampicillin Concentration (maximum concentration for ampicillin resistance),"wild type (dnaQ+ strain); Wild type (MNNG Concn 1), 5th Run",60 µg/mL
same,AC: Ampicillin Concentration (maximum concentration for ampicillin resistance),"wild type (dnaQ+ strain); Wild type (MNNG Concn 3), 1st Run",3 µg/mL
same,AC: Ampicillin Concentration (maximum concentration for ampicillin resistance),"wild type (dnaQ+ strain); Wild type (MNNG Concn 3), 2nd Run",30 µg/mL
same,AC: Ampicillin Concentration (maximum concentration for ampicillin resistance),"wild type (dnaQ+ strain); Wild type (MNNG Concn 3), 3rd Run",100 µg/mL
same,AC: Ampicillin Concentration (maximum concentration for ampicillin resistance),"wild type (dnaQ+ strain); Wild type (MNNG Concn 3), 4th Run",300 µg/mL
same,AC: Ampicillin Concentration (maximum concentration for ampicillin resistance),"wild type (dnaQ+ strain); Wild type (MNNG Concn 6), 1st Run",3 µg/mL
same,AC: Ampicillin Concentration (maximum concentration for ampicillin resistance),"wild type (dnaQ+ strain); Wild type (MNNG Concn 6), 2nd Run",6 µg/mL
same,AC: Ampicillin Concentration (maximum concentration for ampicillin resistance),"wild type (dnaQ+ strain); Wild type (MNNG Concn 6), 3rd Run",10 µg/mL
same,AC: Ampicillin Concentration (maximum concentration for ampicillin resistance),"wild type (dnaQ+ strain); Wild type (MNNG Concn 6), 4th Run",10 µg/mL
same,AC: Ampicillin Concentration (maximum concentration for ampicillin resistance),"wild type (dnaQ+ strain); Wild type (MNNG Concn 6), 5th Run",30 µg/mL
same,AC: Ampicillin Concentration (maximum concentration for ampicillin resistance),"wild type (dnaQ+ strain); Wild type (MNNG Concn 10), 1st Run",6 µg/mL
same,AC: Ampicillin Concentration (maximum concentration for ampicillin resistance),"wild type (dnaQ+ strain); Wild type (MNNG Concn 30), 1st Run",3 µg/mL
same,Maximum concentration for ampicillin resistance,wild type (dnaQ+ strain); after first mutagenesis,3˜6 μg/ml
same,Maximum concentration for ampicillin resistance,wild type (dnaQ+ strain); after second mutagenesis,6˜30 μg/ml
same,Resistance concentration of ampicillin-resistant Escherichia coli reported up to now,[2],"1,500 μg/ml"
CO/N=C(\C(=O)N[C@@H]1C(=O)N2C(C(=O)O)=C(COC(C)=O)CS[C@H]12)c1csc(N)n1 [Cefotaxime],Minimum growth inhibiting concentration (MIC),dnaQ,0.0313
same,Minimum growth inhibiting concentration (MIC),Wild-Type,0.0156
same,Minimum growth inhibiting concentration (MIC),Super-Amp-resistant dnaQ,64
same,Resistance of ampicillin-resistant dnaQ49 strain to other antibiotic substances (MIC investigation),Super-Amp-resistant dnaQ,strong resistance
O=C(N[C@H](CO)[C@H](O)c1ccc([N+](=O)[O-])cc1)C(Cl)Cl [Chloramphenicol],Minimum growth inhibiting concentration (MIC),dnaQ,1
same,Minimum growth inhibiting concentration (MIC),Wild-Type,0.5
same,Minimum growth inhibiting concentration (MIC),Super-Amp-resistant dnaQ,0.5
CCn1cc(C(=O)O)c(=O)c2ccc(C)nc21 [Nalidixic acid],Minimum growth inhibiting concentration (MIC),dnaQ,1
same,Minimum growth inhibiting concentration (MIC),[3],2048
same,Growth of dnaQ+ strain (wild type) in the presence of drug,dnaQ+ strain (wild type),*3) dnaQ+ strain (wild type) did not grow in the presence of 10 μg/ml of nalidixic acid.
same,Minimum growth inhibiting concentration (MIC),Wild-Type,2
same,Concentration of Nalidixic Acid,dnaQ49 strain [4]; [6],1 µg/mL
same,Concentration of Nalidixic Acid,dnaQ49 strain [4]; [7],10 µg/mL
same,Concentration of Nalidixic Acid,dnaQ49 strain [4]; [8],100 µg/mL
same,Concentration of Nalidixic Acid,dnaQ49 strain [4]; [9],200 µg/mL
same,Concentration of Nalidixic Acid,dnaQ49 strain [4]; [10],400 µg/mL
same,Concentration of Nalidixic Acid,dnaQ49 strain [4]; [11],600 µg/mL
same,Concentration of Nalidixic Acid,dnaQ49 strain [4]; [12],1000 µg/mL
same,Concentration of Nalidixic Acid,dnaQ49 strain [4]; [13],1100 µg/mL
same,Concentration of Nalidixic Acid,dnaQ49 strain [4]; [14],1200 µg/mL
same,Concentration of Nalidixic Acid,dnaQ49 strain [4]; [15],1300 µg/mL
same,Concentration of Nalidixic Acid,dnaQ49 strain [4]; [16],1400 µg/mL
same,Concentration of Nalidixic Acid,dnaQ49 strain [4]; [17],1600 µg/mL
same,Concentration of Nalidixic Acid,dnaQ49 strain [4]; [18],1800 µg/mL
same,Concentration of Nalidixic Acid,dnaQ49 strain [4]; [19],2000 µg/mL
same,Concentration of Nalidixic Acid,dnaQ49 strain [4]; [20],2500 µg/mL
same,Concentration of Nalidixic Acid,dnaQ49 strain [4]; [21],3000 µg/mL
same,Concentration of Nalidixic Acid,dnaQ49 strain [4]; [22],4000 µg/mL
same,Concentration of Nalidixic Acid,dnaQ49 strain [4]; [23],5000 µg/mL
same,Concentration of Nalidixic Acid,dnaQ49 strain [4]; [24],6000 µg/mL
same,Concentration of Nalidixic Acid,dnaQ49 strain [4]; [25],6200 µg/mL
same,Concentration of Nalidixic Acid,dnaQ49 strain [4]; [26],6400 µg/mL
same,Concentration of Nalidixic Acid,dnaQ49 strain [4]; [27],6600 µg/mL
same,Concentration of Nalidixic Acid,dnaQ49 strain [4]; [28],6800 µg/mL
same,Concentration of Nalidixic Acid,"dnaQ49 strain [4]; mutagenesis treatments for 24 times, listed as Nalidixic Acid",7000 µg/mL
same,Concentration of Nalidixic Acid,"dnaQ49 strain [4]; mutagenesis treatments for 24 times, listed as nalidixic acid","7,000 μg/ml"
same,Minimum growth inhibiting concentration (MIC),Super-Amp-resistant dnaQ,0.5
CO[C@H]1/C=C/O[C@@]2(C)Oc3c(C)c(O)c4c(O)c(c(/C=N/N5CCN(C)CC5)c(O)c4c3C2=O)NC(=O)/C(C)=C\C=C\[C@H](C)[C@H](O)[C@@H](C)[C@@H](O)[C@@H](C)[C@H](OC(C)=O)[C@@H]1C [Rifampicin],Minimum growth inhibiting concentration (MIC),dnaQ,8
same,Minimum growth inhibiting concentration (MIC),Wild-Type,4
same,Minimum growth inhibiting concentration (MIC),Super-Amp-resistant dnaQ,2
[H]/N=C(/N)N[C@H]1[C@H](O)[C@@H](O)[C@H](O[C@@H]2O[C@@H](C)[C@](O)(C=O)[C@H]2O[C@@H]2O[C@@H](CO)[C@H](O)[C@@H](O)[C@@H]2NC)[C@@H](N/C(N)=N\[H])[C@@H]1O [Streptomycin],Minimum growth inhibiting concentration (MIC),dnaQ,1
same,Minimum growth inhibiting concentration (MIC),[5],2048
same,Growth of dnaQ+ strain (wild type) in the presence of drug,dnaQ+ strain (wild type),*3) dnaQ+ strain (wild type) did not grow in the presence of 10 μg/ml of streptomycin.
same,Minimum growth inhibiting concentration (MIC),Wild-Type,1
same,Concentration of Streptomycin,dnaQ49 strain [4]; [6],1 µg/mL
same,Concentration of Streptomycin,dnaQ49 strain [4]; [7],10 µg/mL
same,Concentration of Streptomycin,dnaQ49 strain [4]; [8],100 µg/mL
same,Concentration of Streptomycin,dnaQ49 strain [4]; [9],1000 µg/mL
same,Concentration of Streptomycin,dnaQ49 strain [4]; [10],3000 µg/mL
same,Concentration of Streptomycin,dnaQ49 strain [4]; [11],4000 µg/mL
same,Concentration of Streptomycin,dnaQ49 strain [4]; [12],6000 µg/mL
same,Concentration of Streptomycin,dnaQ49 strain [4]; [13],8000 µg/mL
same,Concentration of Streptomycin,dnaQ49 strain [4]; [14],9000 µg/mL
same,Concentration of Streptomycin,dnaQ49 strain [4]; [15],10000 µg/mL
same,Concentration of Streptomycin,dnaQ49 strain [4]; [16],12000 µg/mL
same,Concentration of Streptomycin,dnaQ49 strain [4]; [17],14000 µg/mL
same,Concentration of Streptomycin,dnaQ49 strain [4]; [18],16000 µg/mL
same,Concentration of Streptomycin,dnaQ49 strain [4]; [19],17000 µg/mL
same,Concentration of Streptomycin,dnaQ49 strain [4]; [20],18000 µg/mL
same,Concentration of Streptomycin,dnaQ49 strain [4]; [21],19000 µg/mL
same,Concentration of Streptomycin,dnaQ49 strain [4]; [22],20000 µg/mL
same,Concentration of Streptomycin,dnaQ49 strain [4]; [23],21000 µg/mL
same,Concentration of Streptomycin,dnaQ49 strain [4]; [24],22000 µg/mL
same,Concentration of Streptomycin,dnaQ49 strain [4]; [25],23000 µg/mL
same,Concentration of Streptomycin,dnaQ49 strain [4]; [26],24000 µg/mL
same,Concentration of Streptomycin,dnaQ49 strain [4]; [27],25000 µg/mL
same,Concentration of Streptomycin,dnaQ49 strain [4]; [28],26000 µg/mL
same,Concentration of Streptomycin,"dnaQ49 strain [4]; mutagenesis treatments for 23 times, listed as streptomycin","26,000 μg/ml"
same,Minimum growth inhibiting concentration (MIC),Super-Amp-resistant dnaQ,0.5
